Laboratory results as given in publication PMC2774234 (Molecular cancer research : MCR, 2009).

System: Prx1
Experiment: Immunoblot of Prx1 after transient Prx1 siRNA transfection of LNCaP cells
Type: cell-based, human
Conditions: 75 nM siRNA

Question: Which “expression of Prx1 (immunoblot)” value does the source give for “11838: Ambion siRNA directed against exon 6 of Prx1; sense 5'-GGCUACUGGUUUGUAUGAUTT-3' (antisense AUCAUACAAACCAGUAGCCTG; chemistry not given here) [compound 11838]” here?
Answer: essentially abolished the expression of Prx1
